{"source": "paper PMC3983056", "about": "(PLoS Pathogens, 2014)", "key": {"[1]": {"assay": "Cell culture medium protein binding by equilibrium dialysis, HPLC/mass spectrometry", "assay_type": "in vitro ADME"}, "[2]": {"tested_on": "latent HIV in resting CD4 T cells from HIV-infected patients on suppressive cART", "assay": "Ex vivo release of extracellular HIV RNA into culture supernatants, resting CD4 T cells", "assay_type": "cell-based", "protocol": "(§2) HIV-infected patients participating in the study were selected based on sustained plasma viral load suppression (<50 copies/ml for >12 months), CD4 counts (>350 cells/µL), and absence of co-infection with hepatitis B or C virus (Supplementary Table S1). Clinical laboratory results were reconfirmed 2 weeks before leukapheresis or blood draw. Leukapheresis was conducted for 3–4 hours, and samples were processed within 2 hours after collection. The leukapheresis product was diluted 1∶1 with PBS and layered over Ficoll for isolation of PBMCs. […] Resting CD4 T cells were isolated by first enriching total CD4 T cells (StemCell Technologies) and subsequently depleting HLA-DR-, CD25-, and CD69-positive cells via negative selection (Miltenyi Biotec, Auburn, CA).\n(§3) To assess HIV activation by HDACi, up to 5 million CD4 T cells were plated in 24-well plates in 2.5 ml of media, supplemented with antiretrovirals (ARVs) (100 nM elvitegravir and 100–300 nM efavirenz) for the entire duration of culture incubation. HDACi were added at specified concentrations on day 0 and cells or culture supernatants were harvested for the analysis of HIV RNA at the indicated time points (6–48 hours or 6–7 days, respectively). For HDACi pulse treatment, cultures were washed twice using ARV-containing media at 4 or 24 hours after addition of HDACi and incubated with ARVs until harvest. To measure HIV RNA levels, 1 ml of culture supernatant was analyzed by a robotic COBAS AmpliPrep/TaqMan system (Roche Diagnostics, Indianapolis, IN), which extracts total nucleic acid and quantifies HIV RNA in copies per milliliter using the HIV-1 Test, v2.0 kit (Roche Diagnostics). For the measurement of cell-associated HIV RNA levels, cells were washed with PBS, counted, and lysed (Qiagen RLT buffer, 400 µl for every 2 million cells; Qiagen, Venlo, Netherlands). Lysates were filtered through a Qiashredder (Qiagen). Total RNA was prepared from the lysates (400 µl) using a robotic system (QIAsymphony, Qiagen) that incorporates a DNase I digestion step to eliminate cellular DNA. The resulting total RNA was eluted with 200 µl of buffer, diluted to 1 ml with nuclease-free water, and analyzed by COBAS using the HIV-1 Test v2.0 kit. Preparations of both cell-associated RNA and supernatant total nucleic acids were tested for potential contamination with HIV DNA and/or host DNA by performing the PCR amplification in the presence and absence of reverse transcriptase and by a detection of GAPDH-encoding host DNA sequence.\n(§4) HIV RNA-induction experiments were conducted using 5 to 6 replicates for every experimental condition, including vehicle-treated controls. Fold induction in HIV RNA levels was calculated as a ratio of mean signals from compound-treated and vehicle (DMSO)-treated control samples from the same donor under identical conditions. […] For experiments using blood-derived resting CD4 T cells, culture supernatants from 3 replicate wells were combined and analyzed using the COBAS system."}, "[3]": {"tested_on": "resting CD4 T cells from cART-suppressed HIV-infected patients", "assay": "Cell activation analysis by flow cytometry, isolated resting CD4 T cells", "assay_type": "cell-based, human", "details": "4-hour pulse RMD", "protocol": "For cell activation analysis, either complete PBMC cultures or resting CD4+ T cells isolated from HIV-infected cART-suppressed patients were incubated with the tested agents under specified conditions and were stained with relevant antibodies. All antibodies were purchased from BD Biosciences and included Alexa Fluor 700-labeled antibody to CD4, APC-H7-labeled antibody to CD8, PE-Cy7 -labeled antibody to CD19, PE-labeled antibody to CD69, APC-labeled antibody to CD25, and V450-labeled antibody to HLA-DR. Live cells were gated by forward and side scatter and exclusion of the dead cells by Live/Dead Fixable Aqua Stain (Invitrogen). Marker staining was assessed by flow cytometry analysis on a LSR Fortessa with data processing using FlowJo software.\nThe surface expression of CD25 and CD69 in viable CD4 cells was analyzed by flow cytometry. Data are mean ± SD of two independent experiments performed with cells isolated from two HIV-infected patients on suppressive cART."}, "human HDAC-11": {"target": "T1, human HDAC-11 (Homo sapiens, UniProt Q96DB2)", "T1 construct": "purchased Reaction Biology Corporation (Malvern, PA)", "T1 sequence (Q96DB2 whole entry)": "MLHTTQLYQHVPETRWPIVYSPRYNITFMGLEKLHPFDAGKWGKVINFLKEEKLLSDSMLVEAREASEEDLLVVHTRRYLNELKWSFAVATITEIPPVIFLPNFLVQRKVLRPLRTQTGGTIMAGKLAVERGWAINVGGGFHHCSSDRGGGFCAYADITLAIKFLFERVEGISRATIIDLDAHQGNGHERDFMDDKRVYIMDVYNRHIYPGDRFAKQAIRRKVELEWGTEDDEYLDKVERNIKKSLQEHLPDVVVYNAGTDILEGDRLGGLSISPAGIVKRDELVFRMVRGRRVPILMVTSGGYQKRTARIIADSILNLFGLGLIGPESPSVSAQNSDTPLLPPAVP", "assay": "HDAC inhibition assay", "assay_type": "biochemical"}, "[4]": {"tested_on": "latent HIV in memory CD4 T cells from HIV-infected patients on suppressive cART", "details": "for HIV RNA avg: 6 days, one value per donor; for extracellular HIV RNA in culture supernatants: memory CD4 T cells", "description": "We used HIV RNA in cell culture supernatants as a surrogate marker for virion release from treated cells. We assumed that extracellular virions would accumulate over the course of several days; therefore, the duration of culture was extended to 6 days to maximize assay sensitivity.\nas §2, §3, §4"}, "[5]": {"tested_on": "memory CD4 cells from HIV-infected patients", "assay": "Viability of primary memory CD4 cells (Cell TiterGlo, 6 days)", "assay_type": "cell-based, human", "details": "memory CD4 cells, tested RMD concentrations (5 and 20 nM, 4 hours), day 6", "experimental": "Cell viability was determined using a Cell TiterGlo reagent 6 days after the initiation of treatment and is expressed as a percentage of cell viability relative to control vehicle-treated memory CD4 cells from the same donors. The data represent mean +/− S.D. from three independent donors. (TIF) Click here for additional data file."}, "[6]": {"tested_on": "HIV p24 antigen in latently infected CD4 T-cell cultures", "assay": "Flow cytometry analysis of p24 expression in the in vitro latency model", "assay_type": "cell-based", "details": "for cells expressing p24 antigen: 48 hours, live cell gate", "experimental": "Seven days post-infection, cells infected with NL4-3-Luc virus were stimulated for 48 hours with test compounds. Cells were stained with fixable viability dye v450 (eBioscience, San Diego, CA) in phosphate buffered saline (PBS) +2% FBS for 30 minutes at 4°C. Cells were fixed with IC Fixation Buffer (eBioscience) for 20 minutes at room temperature in the dark followed by treatment with a permeabilization buffer (eBioscience) for 30 minutes at 4°C. […] The cells were analyzed on a LSR Fortessa (BD Biosciences, San Jose, CA) and collected data were processed using a FlowJo Analysis Software (TreeStar, Ashland, OR)."}, "human HDAC-4": {"target": "T2, human HDAC-4 (Homo sapiens, UniProt P56524)", "T2 construct": "purchased Reaction Biology Corporation (Malvern, PA)", "T2 sequence (P56524 whole entry)": "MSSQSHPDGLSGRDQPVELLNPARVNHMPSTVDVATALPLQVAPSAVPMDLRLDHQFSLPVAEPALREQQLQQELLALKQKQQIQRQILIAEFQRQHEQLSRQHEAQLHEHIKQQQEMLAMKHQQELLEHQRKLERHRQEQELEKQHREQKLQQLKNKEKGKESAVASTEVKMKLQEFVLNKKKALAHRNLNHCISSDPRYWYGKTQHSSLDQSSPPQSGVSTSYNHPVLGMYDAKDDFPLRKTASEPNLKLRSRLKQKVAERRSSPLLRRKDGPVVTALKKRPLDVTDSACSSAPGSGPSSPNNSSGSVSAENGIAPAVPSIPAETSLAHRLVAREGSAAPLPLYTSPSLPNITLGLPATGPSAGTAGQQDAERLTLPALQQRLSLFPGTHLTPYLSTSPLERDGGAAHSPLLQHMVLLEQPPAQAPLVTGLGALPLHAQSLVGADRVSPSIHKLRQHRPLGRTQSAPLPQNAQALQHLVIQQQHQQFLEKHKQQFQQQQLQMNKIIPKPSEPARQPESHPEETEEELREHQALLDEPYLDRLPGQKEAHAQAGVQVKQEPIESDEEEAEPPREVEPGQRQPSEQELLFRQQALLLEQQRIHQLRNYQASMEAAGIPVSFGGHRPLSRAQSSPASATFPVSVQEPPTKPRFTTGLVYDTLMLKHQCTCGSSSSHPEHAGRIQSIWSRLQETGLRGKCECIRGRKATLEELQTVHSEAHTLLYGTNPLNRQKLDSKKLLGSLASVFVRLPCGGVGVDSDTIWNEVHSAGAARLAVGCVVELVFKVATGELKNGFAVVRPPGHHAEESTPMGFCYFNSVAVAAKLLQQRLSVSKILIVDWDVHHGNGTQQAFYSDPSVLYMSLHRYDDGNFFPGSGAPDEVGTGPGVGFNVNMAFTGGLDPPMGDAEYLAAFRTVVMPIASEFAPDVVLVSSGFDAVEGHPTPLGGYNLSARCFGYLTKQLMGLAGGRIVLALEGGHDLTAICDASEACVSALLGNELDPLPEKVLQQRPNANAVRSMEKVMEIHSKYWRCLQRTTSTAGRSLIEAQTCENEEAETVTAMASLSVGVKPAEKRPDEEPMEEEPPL", "assay": "HDAC inhibition assay", "assay_type": "biochemical", "experimental": "(§1) Determination of HDACi potency against individual HDAC enzymes was performed at Reaction Biology Corporation (Malvern, PA). In brief, human HDAC-1 to -11 enzymes were incubated with serial dilutions of HDACi and fluorogenic peptide substrates (50 µM) in a 96-well format assay. […] Fluorogenic peptide Boc-Lys(trifluoroacetyl)-AMC was used as a substrate for HDAC enzymes 4, 5, 7, and 9."}, "human HDAC-10": {"target": "T3, human HDAC-10 (Homo sapiens, UniProt Q969S8)", "T3 construct": "purchased Reaction Biology Corporation (Malvern, PA)", "T3 sequence (Q969S8 whole entry)": "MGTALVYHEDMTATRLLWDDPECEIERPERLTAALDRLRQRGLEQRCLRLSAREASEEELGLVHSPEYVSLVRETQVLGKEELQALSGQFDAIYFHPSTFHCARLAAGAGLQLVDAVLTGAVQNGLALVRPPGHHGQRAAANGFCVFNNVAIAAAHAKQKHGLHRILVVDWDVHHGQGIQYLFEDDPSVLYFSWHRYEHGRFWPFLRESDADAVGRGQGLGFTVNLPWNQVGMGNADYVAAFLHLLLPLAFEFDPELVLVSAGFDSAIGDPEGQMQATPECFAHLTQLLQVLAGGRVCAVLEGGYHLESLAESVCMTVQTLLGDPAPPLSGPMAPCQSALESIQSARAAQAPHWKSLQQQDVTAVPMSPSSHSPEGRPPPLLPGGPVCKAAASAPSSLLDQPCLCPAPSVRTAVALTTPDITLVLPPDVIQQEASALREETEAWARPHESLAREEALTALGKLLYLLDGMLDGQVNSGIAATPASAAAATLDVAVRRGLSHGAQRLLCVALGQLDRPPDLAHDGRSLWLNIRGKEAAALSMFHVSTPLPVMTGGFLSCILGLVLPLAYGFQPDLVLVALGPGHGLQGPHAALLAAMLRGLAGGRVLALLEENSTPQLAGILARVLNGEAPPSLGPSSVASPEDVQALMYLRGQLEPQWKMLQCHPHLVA", "assay": "HDAC inhibition assay", "assay_type": "biochemical", "experimental": "as §1"}, "human HDAC-1": {"target": "T4, human HDAC-1 (Homo sapiens, UniProt Q13547)", "T4 construct": "purchased Reaction Biology Corporation (Malvern, PA)", "T4 sequence (Q13547 whole entry)": "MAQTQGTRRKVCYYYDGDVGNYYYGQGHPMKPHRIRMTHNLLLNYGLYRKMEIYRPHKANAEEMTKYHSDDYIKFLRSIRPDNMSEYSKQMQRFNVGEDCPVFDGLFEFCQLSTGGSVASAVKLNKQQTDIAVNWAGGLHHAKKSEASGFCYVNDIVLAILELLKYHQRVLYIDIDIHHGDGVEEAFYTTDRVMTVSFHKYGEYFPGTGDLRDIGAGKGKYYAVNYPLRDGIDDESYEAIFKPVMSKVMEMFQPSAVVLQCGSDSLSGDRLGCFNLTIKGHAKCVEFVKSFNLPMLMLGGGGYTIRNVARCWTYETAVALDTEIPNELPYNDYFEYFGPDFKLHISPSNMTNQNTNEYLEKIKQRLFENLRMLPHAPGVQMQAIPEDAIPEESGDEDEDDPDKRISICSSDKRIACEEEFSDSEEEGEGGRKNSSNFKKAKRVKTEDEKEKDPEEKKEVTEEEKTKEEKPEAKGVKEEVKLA", "assay": "HDAC inhibition assay", "assay_type": "biochemical", "experimental": "as §1"}, "[7]": {"tested_on": "HIV expressing a luciferase reporter gene (NL4-3-Luc) in latently infected primary CD4 T cells", "assay": "microbe, parasite or virus in culture", "assay_type": "cell-based", "details": "Human immunodeficiency virus 1, NL43, CD4+ T, 48 h, continuous 48 hours, cells from three healthy donors, mean ± SD", "text": "To assess clinically tested HDACi for their ability to activate HIV from latency, we first employed a previously described in vitro HIV latency model, [30] with several modifications to increase the sensitivity of detection. The assay involves freshly isolated naïve CD4 T cells from healthy donors polarized to a Th0 phenotype, which mimics memory CD4 T cells. These Th0 cells are then infected with HIV expressing a luciferase reporter gene and cultured for an additional 7 to 10 days until a latent infection is established.\nTotal peripheral blood mononuclear cells (PBMCs) were obtained from healthy HIV-negative donors by leukapheresis (AllCells, Inc, Emeryville, CA). […] Purified naive CD4+ T cells were activated by incubation with anti-CD3/CD28 magnetic Dynabeads (1 bead: 2 cells ratio, Life Technologies), 1 µg/ml anti-IL-4 (R&D Systems, Minneapolis, MN), 2 µg/ml anti-IL-12p70 antibodies (R&D Systems), and 10 ng/ml TGF-β (R&D Systems) for 3 days, [59]. Following the removal of anti-CD3/CD28 beads and antibodies, cells were maintained in 30 U/ml IL-2 (Life Technologies) for 2 days. Cells were then infected with NL4.3-Luc in the presence of 50 µg/ml DEAE for 3 hours. Cells were maintained in the continued presence of 30 U/ml IL-2 throughout the infection and subsequent rest period with culture medium with fresh IL-2 replaced every 2–3 days. Seven days post-infection, 20 µl of latently infected cells were dispensed into 384 well plates using a MicroFlo dispenser (Biotek Insturments, VT) at 10,000 cells/well containing 100 nl of compound solutions delivered by the Echo acoustic-based liquid dispenser (Labcyte, Sunnyvale, CA). After a 48-hour incubation, 16 µl/well BriteGlo (Promega, Madison, WI) was added and luminescence measured using the Envision plate reader (Perkin Elmer, Waltham, MA). Compound-associated cytotoxicity was determined in latently infected cells in parallel with the virus activation assay. Cells were incubated with compounds for 48 hours at 37°C, and cell viability was determined using Cell Titer Glo reagent (Promega)."}, "[8]": {"tested_on": "total class I and II HDAC enzyme activity in resting CD4 T cells", "details": "pulse RMD 4 hours, VOR 24 hours, PNB 24 hours, 6 to 48 hours", "experimental": "Resting CD4 T cells obtained from HIV-infected patients on suppressive cART were incubated with serial dilutions of HDACi in 96-well plates at 10,000 cells/well for indicated time and then lysed by repeated freezing and thawing. Total cellular HDAC activity was measured using the HDAC-Glo I/II assay kit (Promega) according to the manufacturer's protocol."}}, "note": "Values joined by “and” are separate entries in the source; they are usually repeats but may differ in a detail not shown here. Equal entries are not always repeated. Where two headings read alike, the source gives them in different places.", "data": [{"smiles": "C/C=C1\\NC(=O)[C@H]2CSSCC/C=C/[C@H](CC(=O)N[C@H](C(C)C)C(=O)N2)OC(=O)[C@H](C(C)C)NC1=O", "note": "[RMD, romidepsin]", "values": [{"measurement": "Free drug concentration, ex vivo cell culture exposure", "setting": "[1]; RMD 40 nM, VOR 1,000 nM in culture", "value": 22, "unit": "nM"}, {"measurement": "fraction unbound", "setting": "[1]; cell culture medium, equilibrium dialysis, read-out: Cell culture medium protein binding (free fraction)", "value": 0.55}, {"measurement": "HIV RNA", "setting": "[2]; Figure 3C, 2.5 nM RMD, 7 days, one value per donor", "value": "1205 copies/mL and 20 copies/mL and 2949 copies/mL and 560 copies/mL and 341 copies/mL and 86 copies/mL and 137 copies/mL"}, {"measurement": "donors with induced HIV RNA release", "setting": "[2]; resting CD4 T cells, 2.5 nM RMD continuous 6 days", "value": "6 of 8"}, {"measurement": "HIV RNA in culture supernatants, longitudinal samples", "setting": "[2]; resting CD4 T cells, 7 days continuous RMD, high-responding patient, three longitudinal samples", "value": "robust and reproducible dose-dependent HIV RNA increase"}, {"measurement": "longitudinal samples with concentration-dependent effect on viral expression", "setting": "[2]; resting CD4 T cells, 7 days continuous RMD, low-responding patient", "value": "2 of 3"}, {"measurement": "fraction of CD69-positive cells", "setting": "[3]", "value": "minimal increases"}, {"measurement": "IC50", "setting": "human HDAC-11", "value": 407, "unit": "pM"}, {"measurement": "HIV RNA avg", "setting": "[4]; Figure 3A, 5 nM RMD", "value": "1476 copies/mil cells and 10908 copies/mil cells and 138 copies/mil cells and 222 copies/mil cells and 322 copies/mil cells and 41.9 copies/mil cells and 73 copies/mil cells and 313.5 copies/mil cells"}, {"measurement": "HIV RNA avg", "setting": "[4]; Figure 3A, 20 nM RMD", "value": "68 copies/mil cells and 712 copies/mil cells and 1346 copies/mil cells and 3086 copies/mil cells and 1361 copies/mil cells and 157 copies/mil cells and 732 copies/mil cells and 4776 copies/mil cells"}, {"measurement": "HIV RNA avg", "setting": "[4]; Figure 3B, 5 nM RMD", "value": "1032 copies/mil cells and 1674 copies/mil cells and 1740 copies/mil cells and 1435 copies/mil cells and 1299 copies/mil cells and 1832 copies/mil cells and 6659 copies/mil cells and 1420 copies/mil cells and 8934 copies/mil cells and 205 copies/mil cells and 148 copies/mil cells and 1219 copies/mil cells"}, {"measurement": "High-responding patient; HIV RNA [copies/mL]", "setting": "[4]; Figure 7, 0.093nM RMD, donor 29, experiments 1-3", "value": "34 copies/mL and 36 copies/mL and 64 copies/mL"}, {"measurement": "Low-responding patient; HIV RNA [copies/mL]", "setting": "[4]; Figure 7, 0.093nM RMD, donor 33, experiments 1-3", "value": "20 copies/mL and 28 copies/mL"}, {"measurement": "extracellular HIV RNA in culture supernatants", "setting": "[4]; 5 nM RMD continuous 6 days", "value": "detection of extracellular HIV RNA in memory CD4 T-cell cultures from the majority of tested donors"}, {"measurement": "extracellular HIV RNA in culture supernatants", "setting": "[4]; 5 and 20 nM RMD for 4 hours, day 6", "value": "increased extracellular HIV RNA"}, {"measurement": "cell viability", "setting": "[5]", "value": "did not substantially affect cell viability"}, {"measurement": "cells expressing p24 antigen", "setting": "[6]; 5 nM RMD", "value": 3.3, "unit": "%"}, {"measurement": "cells expressing p24 antigen", "setting": "[6]; 80 nM RMD", "value": 5.5, "unit": "%"}, {"measurement": "time course of p24 expression", "setting": "[6]; 24 to 72 hours, 40 nM RMD or anti-CD3/CD28 antibodies, in presence of antiretrovirals", "value": "continued to increase for 72 hours"}, {"measurement": "IC50", "setting": "human HDAC-4", "value": 314000, "unit": "pM"}, {"measurement": "IC50", "setting": "human HDAC-10", "value": 133, "unit": "pM"}, {"measurement": "IC50", "setting": "human HDAC-1", "value": 102, "unit": "pM"}, {"measurement": "EC50", "setting": "[7]", "value": "4500 ± 1000", "unit": "pM"}, {"measurement": "persistence of inhibition of cell-associated HDAC activity", "setting": "[8]", "value": "persisted throughout the 48-hour incubation period"}]}]}
